Experimental data as given in PubChem BioAssay (NCI).
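All cell lines were grown in 96-well plates and treated with compound for 48 hours. The concentration for full growth arrest is given as TGI.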

Assays:
Test in all cases: growth of human tumour cells (NCI), 48 h
SF-539 CNS = system: SF-539 CNS
SR leukemia = system: SR leukemia
EKVX NSCLC = system: EKVX NSCLC
NCI-H522 lung = system: NCI-H522 lung
ACHN renal = system: ACHN renal
SF-295 CNS = system: SF-295 CNS
COLO 205 colon = system: COLO 205 colon
SN12C renal = system: SN12C renal
CAKI-1 renal = system: CAKI-1 renal
UO-31 renal = system: UO-31 renal
PC-3 prostate = system: PC-3 prostate
M14 melanoma = system: M14 melanoma
KM12 colon = system: KM12 colon
U251 CNS = system: U251 CNS
LOX IMVI melanoma = system: LOX IMVI melanoma
OVCAR-3 ovarian = system: OVCAR-3 ovarian
HCT-116 colon = system: HCT-116 colon
K-562 leukemia = system: K-562 leukemia
OVCAR-8 ovarian = system: OVCAR-8 ovarian
HOP-62 NSCLC = system: HOP-62 NSCLC
SK-MEL-28 melanoma = system: SK-MEL-28 melanoma
OVCAR-4 ovarian = system: OVCAR-4 ovarian
SNB-19 CNS = system: SNB-19 CNS
SK-MEL-5 melanoma = system: SK-MEL-5 melanoma
MDA-N = system: MDA-N
MOLT-4 leukemia = system: MOLT-4 leukemia
SW-620 colon = system: SW-620 colon
MDA-MB-435 = system: MDA-MB-435
HS 578T breast = system: HS 578T breast
NCI/ADR-RES ovarian = system: NCI/ADR-RES ovarian
TK-10 renal = system: TK-10 renal
T-47D breast = system: T-47D breast
MCF7 breast = system: MCF7 breast
UACC-62 melanoma = system: UACC-62 melanoma
BT-549 breast = system: BT-549 breast
HT29 colon = system: HT29 colon
HL-60(TB) leukemia = system: HL-60(TB) leukemia
SF-268 CNS = system: SF-268 CNS
HOP-92 NSCLC = system: HOP-92 NSCLC
SK-OV-3 ovarian = system: SK-OV-3 ovarian
786-0 renal = system: 786-0 renal
MDA-MB-231 breast = system: MDA-MB-231 breast
UACC-257 melanoma = system: UACC-257 melanoma
SNB-75 CNS = system: SNB-75 CNS
NCI-H226 lung = system: NCI-H226 lung
IGROV1 ovarian = system: IGROV1 ovarian
NCI-H23 lung = system: NCI-H23 lung
HCC-2998 colon = system: HCC-2998 colon
OVCAR-5 ovarian = system: OVCAR-5 ovarian
A549 NSCLC = system: A549 NSCLC
NCI-H460 lung = system: NCI-H460 lung
SK-MEL-2 melanoma = system: SK-MEL-2 melanoma
RPMI-8226 leukemia = system: RPMI-8226 leukemia
CCRF-CEM leukemia = system: CCRF-CEM leukemia
HCT-15 colon = system: HCT-15 colon
DU-145 prostate = system: DU-145 prostate
MALME-3M melanoma = system: MALME-3M melanoma
RXF 393 renal = system: RXF 393 renal
A498 renal = system: A498 renal
SNB-78 CNS = system: SNB-78 CNS
HOP-18 NSCLC = system: HOP-18 NSCLC
DMS 273 small cell lung = system: DMS 273 small cell lung
M19-MEL melanoma = system: M19-MEL melanoma
LXFL 529 NSCLC = system: LXFL 529 NSCLC
KM20L2 colon = system: KM20L2 colon
DLD-1 colon = system: DLD-1 colon
DMS 114 small cell lung = system: DMS 114 small cell lung
XF 498 CNS = system: XF 498 CNS

`O=c1[nH]c(=S)n(-c2cccc3ccccc23)c(O)c1/C=C1\C=Nc2ccccc21` was tested, and the TGI (SF-539 CNS) was 5.38 µM, the TGI (SR leukemia) was 4.04 µM and the TGI (EKVX NSCLC) was 5.38 µM. For the same compound, the TGI (NCI-H522 lung) was 10.2 µM, the TGI (ACHN renal) was 5.73 µM and the TGI (SF-295 CNS) was 10.3 µM. For the same compound, the TGI (COLO 205 colon) was 3.4 µM, the TGI (SN12C renal) was 5.29 µM and the TGI (CAKI-1 renal) was 8.65 µM. For the same compound, the TGI (UO-31 renal) was 4.93 µM, the TGI (PC-3 prostate) was 6.74 µM and the TGI (M14 melanoma) was 3.77 µM. The TGI (KM12 colon) was 6.87 µM, the TGI (U251 CNS) was 5.45 µM and the TGI (LOX IMVI melanoma) was 3.81 µM. For the same compound, the TGI (OVCAR-3 ovarian) was 12.6 µM, the TGI (HCT-116 colon) was 4.55 µM and the TGI (K-562 leukemia) was 7.11 µM. For the same compound, the TGI (OVCAR-8 ovarian) was 6.86 µM, the TGI (HOP-62 NSCLC) was 10.7 µM and the TGI (SK-MEL-28 melanoma) was 6.06 µM. The TGI (OVCAR-4 ovarian) was 7.42 µM, the TGI (SNB-19 CNS) was 11.3 µM and the TGI (SK-MEL-5 melanoma) was 3.12 µM. It also gave a TGI (MDA-N) of 4.63 µM, a TGI (MOLT-4 leukemia) of 5.02 µM and a TGI (SW-620 colon) of 6.73 µM. It also gave a TGI (MDA-MB-435) of 6.69 µM, a TGI (HS 578T breast) of 58.8 µM and a TGI (NCI/ADR-RES ovarian) of 10.5 µM. For the same compound, the TGI (TK-10 renal) was 6.06 µM, the TGI (T-47D breast) was 19.3 µM and the TGI (MCF7 breast) was 7.19 µM. The TGI (UACC-62 melanoma) was 3.26 µM, the TGI (BT-549 breast) was 3.55 µM and the TGI (HT29 colon) was 5.03 µM. The TGI (HL-60(TB) leukemia) was 5.27 µM, the TGI (SF-268 CNS) was 11.4 µM and the TGI (HOP-92 NSCLC) was 4.85 µM. The TGI (SK-OV-3 ovarian) was 14.5 µM, the TGI (786-0 renal) was 3.55 µM and the TGI (MDA-MB-231 breast) was 5.14 µM. It also gave a TGI (UACC-257 melanoma) of 5.51 µM, a TGI (SNB-75 CNS) of 6.42 µM and a TGI (NCI-H226 lung) of 5.8 µM. For the same compound, the TGI (IGROV1 ovarian) was 4.76 µM, the TGI (NCI-H23 lung) was 3.48 µM and the TGI (HCC-2998 colon) was 3.5 µM. The TGI (OVCAR-5 ovarian) was 5.47 µM, the TGI (A549 NSCLC) was 20.6 µM and the TGI (NCI-H460 lung) was 5.38 µM. The TGI (SK-MEL-2 melanoma) was 3.55 µM, the TGI (RPMI-8226 leukemia) was 4.96 µM and the TGI (CCRF-CEM leukemia) was 5.35 µM. The TGI (HCT-15 colon) was 3.45 µM, the TGI (DU-145 prostate) was 3.55 µM and the TGI (MALME-3M melanoma) was 5.8 µM. The TGI (RXF 393 renal) was 3.43 µM and the TGI (A498 renal) was 4.25 µM.
With `CCc1cc(C)cc2[n+]1CC=C2C` the TGI (SNB-78 CNS) was > 100 µM, the TGI (SF-539 CNS) was > 100 µM and the TGI (EKVX NSCLC) was > 100 µM. The TGI (NCI-H522 lung) was > 100 µM, the TGI (ACHN renal) was > 100 µM and the TGI (SF-295 CNS) was > 100 µM. The TGI (COLO 205 colon) was > 100 µM, the TGI (SN12C renal) was > 100 µM and the TGI (CAKI-1 renal) was > 100 µM. The TGI (UO-31 renal) was > 100 µM, the TGI (M14 melanoma) was > 100 µM and the TGI (KM12 colon) was > 100 µM. For the same compound, the TGI (U251 CNS) was > 100 µM, the TGI (LOX IMVI melanoma) was > 100 µM and the TGI (OVCAR-3 ovarian) was > 100 µM. For the same compound, the TGI (OVCAR-8 ovarian) was > 100 µM, the TGI (HOP-62 NSCLC) was > 100 µM and the TGI (SK-MEL-28 melanoma) was > 100 µM. The TGI (OVCAR-4 ovarian) was > 100 µM, the TGI (SNB-19 CNS) was > 100 µM and the TGI (SK-MEL-5 melanoma) was > 100 µM. The TGI (SW-620 colon) was > 100 µM, the TGI (TK-10 renal) was > 100 µM and the TGI (HT29 colon) was > 100 µM. For the same compound, the TGI (HOP-18 NSCLC) was 9.88 µM, the TGI (DMS 273 small cell lung) was > 100 µM and the TGI (HL-60(TB) leukemia) was > 100 µM. For the same compound, the TGI (SF-268 CNS) was > 100 µM, the TGI (HOP-92 NSCLC) was > 100 µM and the TGI (786-0 renal) was > 100 µM. The TGI (UACC-257 melanoma) was > 100 µM, the TGI (SNB-75 CNS) was > 100 µM and the TGI (NCI-H226 lung) was > 100 µM. The TGI (NCI-H23 lung) was > 100 µM, the TGI (HCC-2998 colon) was > 100 µM and the TGI (M19-MEL melanoma) was > 100 µM. The TGI (LXFL 529 NSCLC) was > 100 µM, the TGI (OVCAR-5 ovarian) was > 100 µM and the TGI (A549 NSCLC) was > 100 µM. The TGI (NCI-H460 lung) was > 100 µM, the TGI (SK-MEL-2 melanoma) was > 100 µM and the TGI (KM20L2 colon) was > 100 µM. For the same compound, the TGI (MALME-3M melanoma) was > 100 µM, the TGI (DLD-1 colon) was > 100 µM and the TGI (RXF 393 renal) was > 100 µM.
`O=S(Cc1cnc2ccccc2c1)c1nc2ccccc2nc1-c1cccs1` (stereo not drawn) gave a TGI (SNB-78 CNS) of 50.7 µM, a TGI (SF-539 CNS) of 32.8 µM and a TGI (EKVX NSCLC) of 25 µM. It also gave a TGI (ACHN renal) of 26.4 µM, a TGI (SF-295 CNS) of 61 µM and a TGI (COLO 205 colon) of 42 µM. It also gave a TGI (SN12C renal) of 32.8 µM, a TGI (UO-31 renal) of 28.3 µM and a TGI (M14 melanoma) of 32.2 µM. For the same compound, the TGI (U251 CNS) was 33.5 µM, the TGI (OVCAR-3 ovarian) was 34.7 µM and the TGI (HCT-116 colon) was 22.4 µM. The TGI (K-562 leukemia) was > 100 µM, the TGI (OVCAR-8 ovarian) was 51.7 µM and the TGI (SK-MEL-28 melanoma) was 34.9 µM. For the same compound, the TGI (OVCAR-4 ovarian) was 24.6 µM, the TGI (SNB-19 CNS) was 43.6 µM and the TGI (MOLT-4 leukemia) was > 100 µM. The TGI (DMS 114 small cell lung) was 25.8 µM, the TGI (XF 498 CNS) was 16.9 µM and the TGI (HT29 colon) was 37.1 µM. For the same compound, the TGI (HOP-18 NSCLC) was 31.7 µM, the TGI (DMS 273 small cell lung) was 34.9 µM and the TGI (HL-60(TB) leukemia) was 72.8 µM. The TGI (SF-268 CNS) was 39.6 µM, the TGI (HOP-92 NSCLC) was 25 µM and the TGI (SK-OV-3 ovarian) was 73 µM. The TGI (786-0 renal) was 27.3 µM, the TGI (UACC-257 melanoma) was 31.2 µM and the TGI (SNB-75 CNS) was 39.3 µM. For the same compound, the TGI (NCI-H226 lung) was 11.6 µM, the TGI (IGROV1 ovarian) was 33.4 µM and the TGI (NCI-H23 lung) was 35.7 µM. The TGI (LXFL 529 NSCLC) was 20.8 µM, the TGI (OVCAR-5 ovarian) was 28.5 µM and the TGI (A549 NSCLC) was 48.6 µM. The TGI (RPMI-8226 leukemia) was > 100 µM, the TGI (CCRF-CEM leukemia) was > 100 µM and the TGI (MALME-3M melanoma) was 37.7 µM.
